The assay concerns glucose dehydrogenase mutant 2. The note with it: cNAD instead of NAD, increasing amounts of nicotinic acid. Here is the method:
Methods: test elements with added nicotinic acid were prepared and analog to Example 1, but with adding coenzyme cNAD (see, Int'l Patent Application Publication No. WO 2007/012494) instead of NAD (same amount on molar basis).
Consequently, test elements were stored: (a) in open vials at 85% r.h. and 35° C., or (b) in closed vials with desiccant at 35° C.

As for `O=C(O)c1cccnc1` [nicotinic acid, pyridine-3-carboxylic acid], where the note is “closed vials with desiccant at 35° C., FIG. 3b”, the “stabilizing effect on remaining enzymatic activity, dry conditions” value is on record as “significant stabilizing effect”. For the same compound, the “stabilizing effect on remaining enzymatic activity, humid conditions” value (open vials at 85% r.h. and 35° C., FIG. 3a) is on record as “significant stabilizing effect”.

These data come from US20160108391A1, “REAGENT COMPOSITIONS HAVING PYRIDINE-CARBOXYLIC ACID-[…], AS WELL AS METHODS OF MAKING AND USING THE SAME” (Roche Diabetes Care, Inc., priority 2013, published 2016).
